Reference: patent US5409933A, “Quinoline derivatives and processes for preparing the same” (priority 1993, dated 1995)
Where a name gives a salt, the structure may show the parent alone. Read-outs that look alike come from different tables or passages of the source.

What was measured:
[1] = tested on: Enterobacter cloacae 1321E; experiment: In Vitro Anti-Bacterial Activity Test (MIC, agar dilution); assay type: cell-based
How it was run: (§1)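 Agar dilution on Muller-Hinton agar; strains inoculated at 10^7 C.F.U./ml, incubated at 37° C. for 18 hours, then scored for visible growth. MIC taken as the lowest concentration preventing growth; ciprofloxacin served as control agent.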

Enterobacter cloacae P99 = experiment: as above; assay type: cell-based; settings: Enterobacter cloacae, P99, 18 h
How it was run: (§2)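 Via the agar dilution method, compound-supplemented Muller-Hinton plates received 10^7 C.F.U./ml inocula. Incubation ran 18 hours at 37° C., and MIC corresponded to the lowest concentration without growth.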

Escherichia coli 078 = experiment: as above; assay type: cell-based
How it was run: as §1

Escherichia coli 1507E = experiment: as above; assay type: cell-based; settings: Muller-Hinton agar, 37° C.
How it was run: as §1

Escherichia coli DC0 = experiment: as above; assay type: cell-based; settings: Muller-Hinton agar, 37° C., 18 hours, read-out: MIC
How it was run: as §1

Escherichia coli DC2 = experiment: as above; assay type: cell-based; settings: Escherichia coli, DC2, 18 h
How it was run: as §1

Escherichia coli TEM = experiment: as above; assay type: cell-based; settings: Escherichia coli, 18 h, Muller-Hinton agar, 37° C.
How it was run: as §2

[2] = tested on: Klebsiella aerogenes 1522E; experiment: as above; assay type: cell-based; settings: Klebsiella aerogenes, 1522E, 18 h, Klebsiella aerogenes 1522E; Muller-Hinton agar, 37° C., 18 hours; read-out: MIC
How it was run: as §1

Klebsiella oxytoca 1082E = experiment: as above; assay type: cell-based; settings: Klebsiella oxytoca 1082E; Muller-Hinton agar, 37° C., 18 hours; read-out: MIC
How it was run: as §1

[3] = tested on: Pseudomonas aeruginosa 1592E; experiment: as above; assay type: cell-based; settings: Muller-Hinton agar, 37° C., 18 hours, read-out: MIC
How it was run: as §1

[4] = tested on: Pseudomonas aeruginosa 1771M; experiment: as above; assay type: cell-based; settings: Pseudomonas aeruginosa, 1771M, 18 h, Muller-Hinton agar, 37° C.
How it was run: as §1

[5] = tested on: Pseudomonas aeruginosa 1771; experiment: as above; assay type: cell-based; settings: Pseudomonas aeruginosa 1771; Muller-Hinton agar, 37° C., 18 hours; read-out: MIC
How it was run: as §1

[6] = tested on: Pseudomonas aeruginosa 9027; experiment: as above; assay type: cell-based; settings: Muller-Hinton agar, 37° C., 18 hours, read-out: MIC
How it was run: as §1

Salmonella typhimurium = experiment: as above; assay type: cell-based; settings: Salmonella enterica; Salmonella typhimurium; Muller-Hinton agar, 37° C., 18 hours; read-out: MIC
How it was run: as §1

[7] = tested on: Staphylococcus aureus 285; experiment: as above; assay type: cell-based; settings: Staphylococcus aureus, 285, 18 h, Staphylococcus aureus 285; Muller-Hinton agar, 37° C., 18 hours; read-out: MIC
How it was run: as §1

[8] = tested on: Staphylococcus aureus 503; experiment: as above; assay type: cell-based; settings: Staphylococcus aureus 503; Muller-Hinton agar, 37° C., 18 hours; read-out: MIC
How it was run: as §1

[9] = tested on: Staphylococcus aureus SG511; experiment: as above; assay type: cell-based; settings: Staphylococcus aureus SG511; Muller-Hinton agar, 37° C., 18 hours; read-out: MIC
How it was run: as §1

[10] = tested on: Streptococcus faecium MD8b; experiment: as above; assay type: cell-based; settings: Enterococcus faecium, Muller-Hinton agar, 37° C., 18 hours, read-out: MIC
How it was run: as §1

[11] = tested on: Streptococcus pyogenes 308A; experiment: as above; assay type: cell-based; settings: Muller-Hinton agar, 37° C., 18 hours, read-out: MIC
How it was run: as §1

[12] = tested on: Streptococcus pyogenes 77A; experiment: as above; assay type: cell-based
How it was run: as §1

P. mirabilis = experiment: Treatment Effect on the Systemic Infection; assay type: in vivo, NMRI mice; settings: Proteus mirabilis, in Mus musculus, 240 h
Method: (§3) 10 fold of the pathogens which lead to 100% lethality were injected intraperitoneally to male and female NMRI mice weighing 18 to 20 g. Immediately and 4 hours after injection, the dose of test compounds, which was determined by two-fold serial dilution method, was administered orally or subcutaneously to the mice, and on the 10th day, the effect was evaluated in terms of ED50 calculated from the number of survived mice by the probit analysis.

Acute Toxicity Test = settings: mouse, in vivo, ICR mice, 14th day
Method: Test compounds were administered to ICR mice weighing 20 to 25 g. On 14th day, LD50 was calculated from the number of survived mice by the probit analysis.

S. aureus 17740 = experiment: Treatment Effect on the Systemic Infection; assay type: in vivo, NMRI mice; settings: 240 h
Method: as §3

[13] = Enterobacter cloacae 1321E, Muller-Hinton agar, 37° C., 18 hours, read-out: MIC
[14] = Escherichia coli 078, Muller-Hinton agar, 37° C., 18 hours, read-out: MIC
[15] = Streptococcus pyogenes 77A, Muller-Hinton agar, 37° C., 18 hours, read-out: MIC
[16] = P. mirabilis, oral, immediately and 4 hours after infection, survival on 10th day, read-out: ED50 Oral Administration
[17] = sc, P. mirabilis, subcutaneous, immediately and 4 hours after infection, survival on 10th day, read-out: ED50 Subcutaneous Injection
[18] = ip, read-out: Acute Toxicity LD50, Peritomeo Injection
[19] = oral, read-out: Acute Toxicity LD50, Oral Administration
[20] = Staphylococcus aureus, in Mus musculus, S. aureus 17740, oral, immediately and 4 hours after infection, survival on 10th day, read-out: ED50 Oral Administration
[21] = Staphylococcus aureus, in Mus musculus, sc, S. aureus 17740, subcutaneous, immediately and 4 hours after infection, survival on 10th day, read-out: ED50 Subcutaneous Injection

| Compound | MIC [1, 13] | MIC (Enterobacter cloacae P99) | MIC (Escherichia coli 078; [14]) | MIC (Escherichia coli 1507E; Escherichia coli, 1507E, 18 h) | MIC (Escherichia coli DC0) | MIC (Escherichia coli DC2) | MIC (Escherichia coli TEM) | MIC [2] | MIC (Klebsiella oxytoca 1082E) | MIC [3] | MIC [4] | MIC [5] | MIC [6] | MIC (Salmonella typhimurium) | MIC [7] | MIC [8] | MIC [9] | MIC [10] | MIC [11] | MIC [12, 15] | further results |
| --- | --- | --- | --- | --- | --- | --- | --- | --- | --- | --- | --- | --- | --- | --- | --- | --- | --- | --- | --- | --- | --- |
| O=C(C[N+](=O)[O-])c1cn(C2CC2)c2c(Cl)c(N3CC4=C(CNC4)C3)c(F)cc2c1=O [Example 34, 1-cyclopropyl-6-fluoro-8-chloro-7-(3,7-diazabicyclo[3.3.0]oct-1,5-en-3-yl)-3-(2-nitroacetyl)-1,4-dihydro-4-oxoquinoline hydrochloride] | 0.049 µg/mL | 0.007 µg/mL | < 0.002 µg/mL | 0.007 µg/mL | 0.195 µg/mL | 0.098 µg/mL | 0.007 µg/mL | 0.013 µg/mL | < 0.002 µg/mL | 0.391 µg/mL | 0.098 µg/mL | 0.195 µg/mL | 0.391 µg/mL | 0.004 µg/mL | 0.049 µg/mL | 0.098 µg/mL | 0.025 µg/mL | 0.098 µg/mL | 0.391 µg/mL | 0.098 µg/mL | ED50 (P. mirabilis; [16]): 0.41 mg/kg; ED50 (P. mirabilis; [17]): 0.16 mg/kg; LD50 at 336 h (Acute Toxicity Test; [18]): 620 mg/kg; LD50 at 336 h (Acute Toxicity Test; [19]): 4000 mg/kg |
| CNCC1=CCN(c2c(F)cc3c(=O)c(C(=O)C[N+](=O)[O-])cn(C4CC4)c3c2Cl)C1 [Example 16, 1-cyclopropyl-6-fluoro-8-chloro-7-(3-methylaminomethyl-2,5-dihydropyrrol-1-yl)-3-(2-nitroacetyl)-1,4-dihydro-4-oxoquinoline hydrochloride] | – | 0.007 µg/mL | 0.004 µg/mL | 0.013 µg/mL | 0.098 µg/mL | 0.013 µg/mL | 0.004 µg/mL | 0.013 µg/mL | 0.007 µg/mL | 0.781 µg/mL | 0.195 µg/mL | 0.391 µg/mL | 0.781 µg/mL | < 0.02 µg/mL | 0.004 µg/mL | < 0.002 µg/mL | 0.004 µg/mL | 0.013 µg/mL | 0.098 µg/mL | 0.025 µg/mL | MIC ([1]; Enterobacter cloacae, 1321E, 18 h): 0.007 µg/mL; ED50 (S. aureus 17740; [20]): 49.7 mg/kg; ED50 (S. aureus 17740; [21]): 97.6 mg/kg; LD50 at 336 h (Acute Toxicity Test; [18]): 605 mg/kg; LD50 at 336 h (Acute Toxicity Test; [19]): 3800 mg/kg |
| O=C(O)c1cn(C2CC2)c2cc(N3CCNCC3)c(F)cc2c1=O [Ciprofloxacin, reference compound] | – | – | – | – | – | – | – | – | – | – | – | – | – | – | – | – | – | – | – | – | ED50 (P. mirabilis; po, read-out: ED50 Oral Administration): 0.82 mg/kg; ED50 (P. mirabilis; sc, read-out: ED50 Subcutaneous Injection): 0.16 mg/kg; ED50 (S. aureus 17740; Staphylococcus aureus, 17740, in Mus musculus, po, read-out: ED50 Oral Administration): > 200 mg/kg |
| CC1COc2c(N3CCN(C)CC3)c(F)cc3c(=O)c(C(=O)O)cn1c23 (centres unmarked) [Ofloxacin, reference compound] | – | – | – | – | – | – | – | – | – | – | – | – | – | – | – | – | – | – | – | – | ED50 (P. mirabilis; [16]): 1.64 mg/kg; ED50 (P. mirabilis; [17]): 0.33 mg/kg; ED50 (S. aureus 17740; [20]): > 200 mg/kg; ED50 (S. aureus 17740; [21]): 200 mg/kg |
| CCOC(=O)C(C(=O)OCC)C(=O)c1cn(C2CC2)c2c(Cl)c(N3CCC(N)C3)c(F)cc2c1=O (centres unmarked) [Example 22, 1-cyclopropyl-6-fluoro-8-chloro-7-(3-aminopyrrolidin-1-yl)-3-(2,2-diethoxycarbonylacetyl)-1,4-dihydro-4-oxoquinoline hydrochloride] | < 0.002 µg/mL | 0.004 µg/mL | 0.004 µg/mL | – | 0.098 µg/mL | 0.025 µg/mL | < 0.002 µg/mL | 0.025 µg/mL | < 0.002 µg/mL | 0.781 µg/mL | 0.195 µg/mL | 0.781 µg/mL | 0.781 µg/mL | 0.004 µg/mL | 0.098 µg/mL | 0.049 µg/mL | 0.049 µg/mL | 0.391 µg/mL | 0.391 µg/mL | – | MIC (Escherichia coli 1507E; 18 hours, read-out: MIC): < 0.002 µg/mL; MIC ([12]; Streptococcus pyogenes, 77A, 18 h): 0.781 µg/mL |
| CS(=O)(=O)CC(=O)c1cn(C2CC2)c2c(Cl)c(N3CCC(N)C3)c(F)cc2c1=O (centres unmarked) [Example 33, 1-cyclopropyl-6-fluoro-8-chloro-7-(3-aminopyrrolidin-1-yl)-3-(2-methanesulfonylacetyl)-1,4-dihydro-4-oxoquinoline hydrochloride] | 0.098 µg/mL | 0.195 µg/mL | – | 0.195 µg/mL | 0.195 µg/mL | 0.098 µg/mL | 0.098 µg/mL | 0.391 µg/mL | 0.391 µg/mL | 1.56 µg/mL | 0.781 µg/mL | 1.56 µg/mL | 1.56 µg/mL | 0.781 µg/mL | 1.56 µg/mL | 0.781 µg/mL | 1.56 µg/mL | 6.25 µg/mL | 3.12 µg/mL | 3.12 µg/mL | MIC (Escherichia coli 078; Escherichia coli, 078, 18 h): 0.195 µg/mL |
